The test system of experiment [1] is P388. The experiment is described as follows: Cytotoxicity against mouse P388 cells in in vitro assay. Type of experiment: functional. The conditions noted are these: read-out: ED50 (the source's name).
Experiment [2] concerns P388. Description: Cytotoxicity against mouse P388 cells in in vivo assay. The class given is functional, organism-based.

In brackets after ≈: the same amount, converted by molar mass. Activity calls are given as the source filed them. The rule behind the calls is not given here.

The text below walks through data of ChEMBL document CHEMBL1151374, “Plant anticancer agents. XIX Constituents of Aquilaria malaccensis” (1981).

As to `CCC/C=C/C=C/C=C/C(=O)O[C@@H]1[C@@H](C)[C@@]2(O)[C@@H](C=C(CO)C[C@]3(O)C(=O)C(C)=C[C@@H]23)[C@@H]2C(C)(C)[C@]12OC(C)=O`, the EC50 with P388 [1] was 0.0022 µg/mL (≈ 0.00397 µM).
As to `CCCCCCCCCCCCCCCCCCCCCC(=O)OCC(COC(=O)CCCCCCCCCCCCCCCCCCCCC)OC(=O)/C=C/c1ccc(O)c(OC)c1`, the EC50 in the experiment on P388 [1] stood at 0.8 µg/mL (≈ 0.876 µM). Moreover, the outcome in the experiment with P388 [2] was inactive.
